Laboratory results from US20220186190A1, “MODELING ONCOLOGY ON DEMAND” (The Board of Trustees of the University of Illinois, priority 2019, published 2022).

Experiments:
HepG2 = test: MTT chemotherapeutic screening, human HCC cell line HepG2; type: cell-based; conditions: 72 hours exposure
Method: (§1) Cells (1×1O^4 cells/well) were cultured in 200 ? DMEM+10% FBS overnight in 96 well plates. The following day, culture media was replaced with fresh media supplemented with one of 10 varying concentrations of each chemotherapeutic compound. Sorafenib, doxorubicin, mitomycin C, and 5-Fluorouracil (5-FU) were prepared from a stock solution in a 10-point serial dilution curve, in DMSO, and added at 1:100 to culture media (final concentration of DMSO was 1% for all conditions). As platinum complexes are inactivated by DMSO, cisplatin stock solution was 3.33 mM in water and the stock was used to prepare all dilutions. Sorafenib and mitomycin C were tested from 0.5-100 μM, doxorubicin from 0.1-20 μM, cisplatin from 1-200 μM, and 5-FU from 1-500 μM in order to assay concentrations that are relevant for clinically used dosages and that allow for calculation of the half maximal inhibitory concentration (IC50) for each compound. 96 well plates with each cell line and chemotherapeutic concentration in triplicate were prepared for time points 0, 24, 48, and 72 hours to observe a dose response overtime. For the 3-(4,5-dimethylthiazol-2-yl)-2,5-diphenyltetrazolium bromide (MTT) assay, 100 ? of fresh media was replaced at each time point, 10 ? of 5 mg/ml MTT added to each well and incubated for 4 hours at 37° C. 100 ? for an SDS/HCl solution (1 g SDS/10 ml 0.1 HCl) was then added to solubilize the resulting formazan dye and the plates incubated an additional 4 h at 37° C. Absorbance at 570 nm was read using a BioTek 800 TS Absorbance Reader (BioTek). Results are expressed in percentage, relative to the absorbance values for each cell line at time 0.
(§2) OCM and human HCC cell lines display similar sensitivities to four FDA approved cytostatic (sorafenib) and cytotoxic (doxorubicin, cisplatin, mitomycin C) chemotherapeutic agents used to treat HCC clinically, either systemically or via transarterial chemoembolization (TACE), and one shown to be ineffective (5-FU) in clinical settings.

Hepal-6 = test: MTT chemotherapeutic screening, murine HCC cell line Hepal-6; type: cell-based; conditions: for IC50: Hepal-6, MTT, 72 hours exposure
Method: as §1, §2

OCM HCC cell lines = test: MTT chemotherapeutic screening, OCM HCC cell line; type: cell-based, pig; conditions: 72 hours exposure
Method: as §1, §2

[1] = system: Oncopig soft tissue sarcoma tumor cells; test: In vitro partitioning and conversion of DON prodrugs to DON in Oncopig soft tissue sarcoma tumor cells; type: in vitro ADME, pig; conditions: FIGS. 12A-12D
Excerpt: FIGS. 12A-12D are graphs showing in vitro partitioning and conversion of 6-diazo-5-oxo-1-norleucine (DON) prodrugs to DON in Oncopig soft tissue sarcoma tumor cells vs. plasma. […] However, when delivered as a prodrug (FIGS. 12B-12D), the level of active compound (DON, y-axis) is much higher in the cells than the cell supernatant.
(§3) OCM soft-tissue sarcoma cell lines were used to assess tumor cell specific uptake and conversion of 6-Diazo-5 -oxo-1-norleucine (DON) prodrugs. […] In addition, in vivo investigation of tumor specific uptake and temporal PK of systemically administered prodrugs in Oncopigs bearing SQ soft-tissue sarcomas validated the capability to employ the tumor-bearing OCM for chemotherapy drug pharmacologic studies (FIGS. 13A and 13B and Table 8).

[2] = In vivo PK and tumor specific uptake of systemically administered DON prodrugs in Oncopigs bearing SQ soft-tissue sarcomas; set-up: species or system pig; conditions: for AUC / Cmax: systemically administered prodrug
Excerpt: as §3

Structure (SMILES)	IC50 (HepG2; Homo sapiens) [nM]	IC50 (Hepal-6; Mus musculus) [nM]	IC50 (OCM HCC cell lines; Sus scrofa) [nM]	IC50 (HepG2) [nM]	IC50 (Hepal-6) [nM]	IC50 (OCM HCC cell lines) [nM]	other results
N.N.[Cl][Pt][Cl] [Cisplatin, cisplatin]	–	–	–	5600	2160	5380	–
[N-]=[N+]=CC(=O)CC[C@H](N)C(=O)O [DON, 6-diazo-5-oxo-1-norleucine]	–	–	–	–	–	–	level of DON in cells vs. cell supernatant [1]: high levels are observed in the cell supernatant, with small amounts entering the cells; Tumor:Plasma AUC ratio [2]: 1.5; selective in vivo partitioning (tumor vs. plasma) ([2]; FIGS. 13A and 13B): selective in vivo partitioning of DON to tumor cells; AUC ([2]; Plasma): 2852 h*pmol/ml or g; Cmax ([2]; Plasma): 530 pmol/ml or g; AUC ([2]; Tumor): 4238 h*pmol/ml or g; Cmax ([2]; Tumor): 1019 pmol/ml or g
COc1cccc2c1C(=O)c1c(O)c3c(c(O)c1C2=O)C[C@@](O)(C(=O)CO)C[C@@H]3O[C@H]1C[C@H](N)[C@H](O)[C@H](C)O1 [Doxorubicin, doxorubicin]	230	530	80	–	–	–	–
CO[C@@]12[C@H](COC(N)=O)C3=C(C(=O)C(C)=C(N)C3=O)N1C[C@@H]1N[C@@H]12 [Mitomycin C, mitomycin C]	–	–	–	570	610	480	–

Now from value to compound, other results behind:

IC50 (HepG2; Homo sapiens) [nM]	IC50 (Hepal-6; Mus musculus) [nM]	IC50 (OCM HCC cell lines; Sus scrofa) [nM]	Structure (SMILES)	IC50 (HepG2) [nM]	IC50 (Hepal-6) [nM]	IC50 (OCM HCC cell lines) [nM]	other results
18300	1820	14500	O=c1[nH]cc(F)c(=O)[nH]1 [5-FU, 5-Fluorouracil]	–	–	–	higher susceptibility of murine HCC lines versus OCM and human lines (Hepal-6; Hepal-6 compared with OCM and human HCC lines): 10 fold
8860	4980	10400	CNC(=O)c1cc(Oc2ccc(NC(=O)Nc3ccc(Cl)c(C(F)(F)F)c3)cc2)ccn1 [Sorafenib]	–	–	–	–
